Experimental data reported in patent US10738044B2, “Therapeutic compound and use in therapy” (PROXIMAGEN, LLC, priority 2015, dated 2020).

Columns and labels:
[1] = tested on: male DBA/1J mice, collagen-induced arthritis; experiment: Established mouse collagen-induced arthritis model; assay type: in vivo
Method: Example 1 was assessed in an established mouse collagen-induced arthritis model. Disease was induced in male DBA/1J mice by means of a subcutaneous injection of a collagen (bovine)/CFA emulsion at the base of the tail. Each paw was scored daily and the sum of all four scores was recorded as the Arthritic Index (AI). The maximum possible AI was 16 (0=no visible effects of arthritis, 1=edema and/or erythema of one digit, 2=edema and/or erythema of 2 joints, 3=edema and/or erythema of more than 2 joints, 4=severe arthritis of the entire paw and digits including limb deformation and ankylosis of the joint). As animals developed disease, they were sorted into treatment groups with AI in the range of 2-6 and an average group AI of 3.6 prior to initiation of the dosing regimen. Example 1 (10, 50 and 100 mg/kg) was administered orally twice daily from day 30 post-inoculation.
Histological evaluation of the rear right hind limbs was also carried out. The joints were scored for severity of arthritis (inflammation, pannus, cartilage damage and bone damage) by a board certified pathologist, who was blind to the assigned treatment.

[2] = tested on: C57BL/10ScSn-Dmdx/J male mice; experiment: Murine model of Duchenne's muscular dystrophy (mdx mice); assay type: in vivo, mouse; conditions: 100 mg/kg po bid for 4 weeks; FIG. 11
Method: C57BL/10ScSn-Dmdx/J male mice were dosed from 27 days for 4 weeks with either vehicle (n=5), prednisolone (1 mg/kg ip qd, n=8) or Example 1 (100 mg/kg po bid, n=8). At 8 weeks of age, blood was collected by retro-orbital bleeding, and mice were humanely euthanized by CO2 asphyxiation. One triceps surae was collected fresh and processed for immune cell sorting, one tibialis anterior was preserved in RNALater for RNA extraction, one whole hind limb and the diaphragm were fixed in 2% paraformaldehyde overnight at 4° C. for paraffin embedding and histology stains. Serum was prepared immediately after collection and frozen at −20° C. At the end of the study, all serum samples were dosed for Creatine Kinase on a Beckman Coulter AU Clinical Chemistry analyzer following manufacturer instructions (a modification of the International Federation of Clinical Chemistry method).
For immune cell sorting, muscle samples were enzymatically and mechanically dissociated following manufacturer instructions (Skeletal Muscle Dissociation KitCatalog no. 130-098-305, Miltenyi Biotec). Cells were stained with the following antibodies:
Stained cells were analyzed on a BD LSR II cytometer and counts of different populations were expressed in percentage of the number of live cells counted. Total RNAs were extracted with a modification of the Trizol method, reverse transcribed, and mRNAs of TGFα, and the following inflammation markers were quantified by the SYBR green method with GAPDH as a normalizer: […]

[3] = tested on: female C57BL/6 mice, CCl4-induced liver fibrosis; experiment: Carbon tetrachloride induced liver fibrosis model; assay type: in vivo, mouse; conditions: 100 mg/kg bid orally for 28 days; FIG. 8
Method: Example 1 was assessed in a carbon tetrachloride (CCl4)-induced Liver Fibrosis Model. 7 week old female C57BL/6 mice were divided into four groups (n=5/group for one Control group to act as non-disease comparator and n=10/group for three CCl4-treated groups based on their body weight the day before the start of the treatment. Thirty mice were intraperitoneally administered 5% CCl4 in mineral oil at a volume of 100 uL twice a week (days 0, 4, 11, 14, 18, 21 and 25). Five mice intraperitoneally administered mineral oil instead of the 5% CCl4, served as the non-diseased control group. Example 1 (100 mg/kg bid), Valsartan (20 mg/kg qd, positive control) and Vehicle were administered orally (dose volume=10 mL/kg) for 28 days (days −1 to 27). […] For quantitative analysis of fibrosis area, bright field images of Sirius red-stained section was blindly captured using a digital camera at 100-fold magnification, and the Sirius red-stained positive areas in 5 fields/4 um section/mouse were measured using ImageJ software (National Institute of Health, USA) and in accordance with the following expression: (collagen area/total area-vascular lumen area)×100. […] Results were expressed as mean±SD. Comparison of the Valsartan group and Vehicle group in fibrosis area was assessed with student's t-test to confirm whether Valsartan worked as a positive control.

[4] = tested on: female SJL mice, experimental allergic encephalomyelitis; experiment: Mouse PLP139-151 relapsing-remitting EAE model; assay type: in vivo; conditions: 3, 10, 30 or 100 mg/kg orally twice daily, therapeutic; FIG. 7
Method: Example 1 was assessed in a PLP139-151 remitting and relapsing model of experimental allergic encephalomyelitis (EAE) in female SJL mice as an indicator of a potential treatment for multiple sclerosis in humans.
Adjuvant was prepared by homogenizing 100 mg Mycobacterium tuberculosis H37 RA in 50 mL Incomplete Freund's Adjuvant to prepare a 2 mg/mL suspension which was stored at 4-8° C. 50 ug pertussis toxin from Bordetella pertussis was reconstituted in 50 mL sterile PBS to prepare a 1 ug/mL solution which was kept in an ice bath. 10.35 mg PLP139-151 was dissolved in 10.35 mL sterile PBS to prepare a 1 mg/mL solution. 10 mL of PLP139-151 was emulsified with 10 mL adjuvant in ten batches in an ice bath to prepare a 0.5 mg/mL PLP139-151/1 mg/mL M. tuberculosis H37 RA emulsion which was kept in an ice bath. […] On day 0, 70 mice were injected subcutaneously in both flanks with 0.1 mL of the PLP139-151/CFA emulsion. Two hours later the mice were injected by intraperitoneal route with 0.2 mL pertussis toxin (200 ng/mouse). The mice were returned to routine maintenance with no adverse effects. On day 2, the mice were injected IP with 0.2 mL of pertussis toxin (200 ng/mouse). From day 7 the mice were weighed and scored for signs of disease as follows: 0=no obvious signs of motor dysfunction compared to non-immunized control; 1=limp or floppy tail; 2=limp tail and weakness in hind legs; 3=limp tail and complete paralysis of legs or limp tail with paralysis of one front and one hind leg; 4=limp tail, complete hind leg and partial front leg paralysis; 5=complete hind and complete front leg paralysis. On days 10-12, the mice were sorted into treatment groups based upon average score and twice daily oral administration of Example 1 (3, 10, 30 or 100 mg/kg), dexamethasone or vehicle (n=10 per group) was initiated. The disease score was monitored for 20 days.

[5] = tested on: serum TNFα in female Swiss Webster mice; experiment: Murine model of LPS-induced cytokine release; assay type: in vivo, mouse; conditions: oral administration one hour prior to LPS challenge; serum one hour after LPS; FIG. 9
Method: Example 1 was assessed in an LPS-induced cytokine release assay. One hour after administration of Example 1, female Swiss Webster mice (n=5 per group) were injected intraperitoneally with 2 mL/kg LPS (1.5 mg/mL). One hour after LPS injection the mice were anesthetized and exsanguinated into pre-chilled serum separator microtainer tubes. The blood was processed to serum which was stored at −80° C. The frozen serum aliquots were thawed to room temperature, diluted 1:5 with sterile saline and assayed by ELISA for TNFα.

[6] = tested on: C57BL6 mice, laser-induced choroidal burns; experiment: Mouse choroidal neovascularisation model; assay type: in vivo; conditions: topical 5 uL instillations tid days 0 to 12; day 12; FIG. 10
Method: Example 1 was assessed in a mouse choroidal neovascularisation model. Pigmented mice (C57BL6 strain, n=15 per group) each were induced with 3 choroidal burns in the right eyes using a 532 nm photocoagulator. Example 1 and vehicle were dosed topically using 5 uL instillations tid from days 0 to 12. On day 12, lesion size was determined by isolectine B4 immunostaining on flatmount choroids from the treated eyes and confocal microscopy for determining the size of the lesion.

[7] = tested on: DSS-treated mice, established colitis; experiment: Chronic DSS-induced colitis mouse model; assay type: in vivo
Method: Example 1 was assessed in the treatment of established disease in the chronic Dextran Sulphate (DSS)-induced colitis model. DSS was administered in the drinking water as a 3% solution for five days. DSS-treated mice were orally administered vehicle, 6-Thioguanine (0.5 mg/kg) or Example 1 (10 mg/kg, 30 mg/kg or 100 mg/kg) b.i.d. from Days 6 to 19. A no treatment control group of 5 mice was also used. Body weights were measured daily for 19 days and animals were assessed visually for the presence of diarrhea and/or bloody stool. All animals underwent video endoscopy on Days 5 (baseline), 12 and 19 to assess the extent of colitis and whether any beneficial treatment effects could be observed. All animals were euthanized on Day 19 to obtain colon tissues for pathology examination.

[8] = 100 mg/kg orally twice daily, rear right hind limbs, FIG. 2

CC(C)[C@H]1c2[nH]cnc2CCN1C(=O)OCc1ccc(OCCCN(C)C)cc1 [Example 1, {4-[3-(Dimethylamino)propoxy]phenyl}methyl (4S)-4-(propan-2-yl)-3H,4H,5H,6H,7H-imidazo[4,5-c]pyridine-5-carboxylate]
reduction in disease severity (Arthritic Index) ([1]; 100 mg/kg orally twice daily, after two weeks of therapy, FIG. 1): 46% | inhibition of bone resorption (joint histology) [1, 8]: 84% | inhibition of cartilage damage (joint histology) [1, 8]: 60% | inhibition of inflammation (joint histology) [1, 8]: 60% | inhibition of pannus formation (joint histology) [1, 8]: 84% | rate of disease development (Arthritic Index) ([1]; 10, 50 and 100 mg/kg orally twice daily from day 30 post-inoculation, FIG. 1): dose-dependent decrease in the rate of disease development | B cells [2]: significant reduction | T cells [2]: significant reduction | TGFβ [2]: significant reduction | cytokines [2]: significant reduction | macrophages [2]: significant reduction | pro-inflammatory monocytes [2]: significant reduction | deposition of collagen in the liver (Sirius red staining) [3]: significantly reduced | disease severity (EAE score) [4]: decrease in disease severity | time to disease relapse [4]: increased time to disease relapse | time to disease remission [4]: dose-dependent decrease in the time to disease remission | serum TNFα levels relative to vehicle control [5]: statistically significant dose-dependent decrease | lesion size versus vehicle [6]: significant reduction | magnitude of the effect relative to positive control 6-Thioguanine (0.5 mg/kg) ([7]; 100 mg/kg orally b.i.d.): comparable to the effect seen with the positive control | overall body weight ([7]; 100 mg/kg orally b.i.d., FIG. 3): statistically significant effects | endoscopy scores on day 12 ([7]; 100 mg/kg orally b.i.d., FIG. 4): statistically significant effects | colon weight ([7]; 100 mg/kg orally b.i.d., FIG. 5): statistically significant effects | diarrhea ([7]; 100 mg/kg orally b.i.d., FIG. 6): statistically significant effects | overall effect in the DSS colitis model ([7]; 10, 30 or 100 mg/kg orally b.i.d., Days 6 to 19): dose-dependent improvement
